US8834840B1, “Magnetic resonance imaging of self-assembled biomaterial scaffolds” (Northwestern University, priority 2006, dated 2014)

Assay: T1 measurements / MR imaging of PA gels at 9.4 T
Type: physicochemical
Conditions: gel of 0.75 wt. % filler PA 1, agent mixed in at 0.1 mM Gd(III) (1 alone without Gd(III)), spin-echo
Experimental: FIG. 4 depicts results of T1 study of PA gels and mixed PA gels. The concentration of Gd(III) is 0.1 mM in all samples except a and the concentration of filler PA is […] in each case (all samples form self-supporting gels): a corresponds to compound 1 alone and is used as a standard, b refers to 1 mixed with DTPA, c refers to 1 mixed with compound 2, d refers to 1 mixed with compound 3, e through j are mixed with compound 3 and their structures are depicted above. Error bars represent one standard deviation.
Mixing PACAs 2 or 3 with filler PA 1 could be successfully imaged by MR (FIG. 3). The gels are homogeneous in image intensity throughout the samples, which implies uniform mixing of the PACA molecules within the filler PA at MR resolution. If heterogeneous mixing of PAs occur on a large enough scale, domains of bright and dark intensity would be observed. […] The gels were made using a 0.75 wt. % of filler PA. The PACA molecule was mixed into this solution before gelling as was the DTPA. Images were acquired using a spin-echo pulse sequence with TR 750 ms, TC 12 ms, slice thickness of 1 mm, FOV of 2 cm, at 9.4 T on an Oxford superconducting magnet and Bruker software. The T1 of these gels were measured at 3.03±0.05 s, 1.89±0.06 s, 1.08±0.06 s, and 2.81±0.05 s, respectively, the faster T1's resulting in higher contrast.
T1 Measurements. […]

Q: For `O=C(O)CN(CCN(CC(=O)O)CC(=O)O)CCN(CC(=O)O)CC(=O)O` [DTPA, diethylenetriaminepentaacetate], which T1 of gels is on record?
A: The T1 of gels was 2.81 ± 0.05 s.
